Reference: ChEMBL document CHEMBL1909294, “Translating clinical findings into knowledge in drug safety evaluation--drug induced liver injury prediction system (DILIps)” (PLoS Comput Biol, 2011)

Columns and labels:
Hepatotoxicity [1] = tested on: Hepatotoxicity;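 for HepSE bilirubinemia: bilirubinemia hepatic side effect score drawn from the DILIps training data, a prediction system for drug-induced liver injury; call rule not given here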;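 for HepSE cholecystitis: Cholecystitis-related hepatic side effect score drawn from the DILIps (drug-induced liver injury prediction) training data set; call rule not given here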;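 for HepSE cholelithiasis: hepatic side effect score for cholelithiasis, drawn from the DILIps training data for predicting drug-induced liver injury; call rule not given here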;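 for HepSE cirrhosis: cirrhosis hepatic side effect score taken from the DILIps (drug-induced liver injury prediction) training set; call rule not given here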;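 for HepSE elevated liver function tests: hepatic side effect score for raised liver function tests, as recorded in the DILIps training set used for predicting drug-induced liver injury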; for HepSE hepatic failure: call rule not given here;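 for HepSE hepatomegaly: hepatic side effect score for hepatomegaly, taken from the training set of the DILIps drug-induced liver injury prediction system; call rule not given here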
Hepatotoxicity [2] = tested on: Hepatotoxicity; remark: listed apart in the source;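 for HepSE bilirubinemia: bilirubinemia hepatic side effect score drawn from the DILIps training data, a prediction system for drug-induced liver injury; call rule not given here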;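 for HepSE cholecystitis: Cholecystitis-related hepatic side effect score drawn from the DILIps (drug-induced liver injury prediction) training data set; call rule not given here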;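 for HepSE cholelithiasis: hepatic side effect score for cholelithiasis, drawn from the DILIps training data for predicting drug-induced liver injury; call rule not given here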;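 for HepSE cirrhosis: cirrhosis hepatic side effect score taken from the DILIps (drug-induced liver injury prediction) training set; call rule not given here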;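 for HepSE elevated liver function tests: hepatic side effect score for raised liver function tests, as recorded in the DILIps training set used for predicting drug-induced liver injury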; for HepSE hepatic failure: call rule not given here
Hepatotoxicity [3] = tested on: Hepatotoxicity; remark: listed apart in the source;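 for HepSE bilirubinemia: bilirubinemia hepatic side effect score drawn from the DILIps training data, a prediction system for drug-induced liver injury; call rule not given here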;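 for HepSE cholecystitis: Cholecystitis-related hepatic side effect score drawn from the DILIps (drug-induced liver injury prediction) training data set; call rule not given here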;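 for HepSE cholelithiasis: hepatic side effect score for cholelithiasis, drawn from the DILIps training data for predicting drug-induced liver injury; call rule not given here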;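 for HepSE cirrhosis: cirrhosis hepatic side effect score taken from the DILIps (drug-induced liver injury prediction) training set; call rule not given here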;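 for HepSE elevated liver function tests: hepatic side effect score for raised liver function tests, as recorded in the DILIps training set used for predicting drug-induced liver injury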; for HepSE hepatic failure: call rule not given here
Hepatotoxicity [4] = tested on: Hepatotoxicity; remark: listed apart in the source;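 for HepSE bilirubinemia: bilirubinemia hepatic side effect score drawn from the DILIps training data, a prediction system for drug-induced liver injury; call rule not given here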;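 for HepSE cholecystitis: Cholecystitis-related hepatic side effect score drawn from the DILIps (drug-induced liver injury prediction) training data set; call rule not given here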;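 for HepSE cholelithiasis: hepatic side effect score for cholelithiasis, drawn from the DILIps training data for predicting drug-induced liver injury; call rule not given here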;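 for HepSE cirrhosis: cirrhosis hepatic side effect score taken from the DILIps (drug-induced liver injury prediction) training set; call rule not given here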;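 for HepSE elevated liver function tests: hepatic side effect score for raised liver function tests, as recorded in the DILIps training set used for predicting drug-induced liver injury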; for HepSE hepatic failure: call rule not given here
Hepatotoxicity [5] = tested on: Hepatotoxicity; remark: listed apart in the source; for HepSE hepatic failure: call rule not given here
Hepatotoxicity [6] = tested on: Hepatotoxicity; remark: listed apart in the source; for HepSE hepatic failure: call rule not given here
Hepatotoxicity [7] = tested on: Hepatotoxicity; remark: listed apart in the source
Hepatotoxicity [8] = tested on: Hepatotoxicity; remark: listed apart in the source
Hepatotoxicity [9] = tested on: Hepatotoxicity; remark: listed apart in the source
Hepatotoxicity [10] = tested on: Hepatotoxicity; remark: listed apart in the source
Hepatotoxicity [11] = tested on: Hepatotoxicity; remark: listed apart in the source
Hepatotoxicity [12] = tested on: Hepatotoxicity; remark: listed apart in the source
Hepatotoxicity [13] = tested on: Hepatotoxicity; remark: listed apart in the source
Hepatotoxicity [14] = tested on: Hepatotoxicity; remark: listed apart in the source

SMILES | HepSE_bilirubinemia (Hepatotoxicity [1]) | HepSE_cholecystitis (Hepatotoxicity [2]) | HepSE_cholelithiasis (Hepatotoxicity [3]) | HepSE_cirrhosis (Hepatotoxicity [4]) | HepSE_elevated liver function tests (Hepatotoxicity [5]) | HepSE_hepatic failure (Hepatotoxicity [6]) | HepSE_hepatic necrosis (Hepatotoxicity [7]) | HepSE_hepatitis (Hepatotoxicity [8]) | HepSE_hepatomegaly (Hepatotoxicity [9]) | HepSE_jaundice (Hepatotoxicity [10]) | HepSE_liver disease (Hepatotoxicity [11]) | HepSE_liver fatty (Hepatotoxicity [12]) | HepSE_liver function tests abnormal (Hepatotoxicity [13]) | HepSE_Combined Scores (Hepatotoxicity [14]) | other results
CN1C2CCCC1CC(NC(=O)c1nn(C)c3ccccc13)C2 (configuration not stated) [GRANISETRON] | 1 | 0 | 0 | 0 | 0 | 0 | 0 | 0 | 0 | 1 | 0 | 0 | 1 | 3 | 
COC1=CC(=O)C[C@@H](C)[C@]12Oc1c(Cl)c(OC)cc(OC)c1C2=O [GRISEOFULVIN] | 0 | 0 | 0 | 0 | 0 | 0 | 0 | 0 | 0 | 0 | 0 | 0 | 0 | 0 | 
N=C(N)NCCN1CCCCCCC1 [GUANETHIDINE] | 0 | 0 | 0 | 0 | 0 | 0 | 0 | 0 | 0 | 0 | 0 | 0 | 0 | 0 | 
N=C(N)NC(=O)Cc1c(Cl)cccc1Cl [GUANFACINE] | 0 | 0 | 0 | 0 | 0 | 0 | 0 | 0 | 0 | 0 | 0 | 0 | 1 | 1 | 
CC1(C)O[C@@H]2C[C@H]3[C@@H]4CCC5=CC(=O)CC[C@]5(C)[C@@]4(F)[C@@H](O)C[C@]3(C)[C@]2(C(=O)CCl)O1 [HALCINONIDE] | 0 | 0 | 0 | 0 | 0 | 0 | 0 | 0 | 0 | 0 | 0 | 0 | 0 | 0 | 
CCC(=O)O[C@]1(C(=O)CCl)[C@@H](C)C[C@H]2[C@@H]3C[C@H](F)C4=CC(=O)C=C[C@]4(C)[C@@]3(F)[C@@H](O)C[C@@]21C [HALOBETASOL PROPIONATE] | 0 | 0 | 0 | 0 | 0 | 0 | 0 | 0 | 0 | 0 | 0 | 0 | 0 | 0 | 
CCCCN(CCCC)CCC(O)c1cc2c(Cl)cc(Cl)cc2c2cc(C(F)(F)F)ccc12 (configuration not stated) [HALOFANTRINE] | 0 | 0 | 0 | 0 | 0 | 0 | 0 | 0 | 0 | 0 | 0 | 0 | 0 | 0 | 
O=C(CCCN1CCC(O)(c2ccc(Cl)cc2)CC1)c1ccc(F)cc1 [HALOPERIDOL] | 0 | 0 | 0 | 0 | 0 | 0 | 0 | 0 | 0 | 1 | 0 | 0 | 0 | 1 | 
FC(F)(F)C(Cl)Br (configuration not stated) [HALOTHANE] | 0 | 0 | 0 | 0 | 0 | 0 | 1 | 0 | 0 | 0 | 0 | 0 | 0 | 1 | 
Oc1c(Cl)cc(Cl)c(Cl)c1Cc1c(O)c(Cl)cc(Cl)c1Cl [HEXACHLOROPHENE] | 0 | 0 | 0 | 0 | 0 | 0 | 0 | 0 | 0 | 0 | 0 | 0 | 0 | 0 | 
NNc1nncc2ccccc12 [HYDRALAZINE] |  |  |  |  |  |  |  |  |  |  |  |  |  |  | HepSE_bilirubinemia (Hepatotoxicity [1]; Liver): 0; HepSE_cholecystitis (Hepatotoxicity [2]; Liver): 0; HepSE_cholelithiasis (Hepatotoxicity [3]; Liver): 0; HepSE_cirrhosis (Hepatotoxicity [4]; Liver): 0; HepSE_elevated liver function tests (Hepatotoxicity [5]; Liver): 0; HepSE_hepatic failure (Hepatotoxicity [6]; Liver): 0; HepSE_hepatic necrosis (Hepatotoxicity [7]; Liver): 0; HepSE_hepatitis (Hepatotoxicity [8]; Liver): 1; HepSE_hepatomegaly (Hepatotoxicity [9]; Liver): 0; HepSE_jaundice (Hepatotoxicity [10]; Liver): 0; HepSE_liver disease (Hepatotoxicity [11]; Liver): 0; HepSE_liver fatty (Hepatotoxicity [12]; Liver): 0; HepSE_liver function tests abnormal (Hepatotoxicity [13]; Liver): 0; HepSE_Combined Scores (Hepatotoxicity [14]; Liver): 1
NS(=O)(=O)c1cc2c(cc1Cl)NCNS2(=O)=O [HYDROCHLOROTHIAZIDE] | 0 | 0 | 0 | 0 | 0 | 0 | 0 | 0 | 0 | 1 | 0 | 0 | 0 | 1 | 
C[C@]12CCC(=O)C=C1CC[C@@H]1[C@@H]2[C@@H](O)C[C@@]2(C)[C@H]1CC[C@]2(O)C(=O)CO [HYDROCORTISONE] | 0 | 0 | 0 | 0 | 0 | 0 | 0 | 0 | 1 | 0 | 0 | 0 | 0 | 1 | 
